# Source: paper PMC5341858, “Molecular regulation of apoptotic machinery and lipid metabolism by mTORC1/mTORC2 dual inhibitors in preclinical models of HER2+/PIK3CAmut breast cancer” (Oncotarget, 2016)
# Tests used:
# Assay in all cases: KINOMEscan binding assay
# [1] = molecular target: T1, ABL1 (E255K)- phosphorylated (Homo sapiens, UniProt P00519, E255K); conditions: 1000 nM, percent control relative to vehicle
# T1 construct: purchased DiscoveRx KINOMEscan
# From the text: (§1) IC50 values were generated using Graphpad PRISM 5 software.
# ACVR1B = molecular target: T2, ACVR1B (Homo sapiens, UniProt P36896); conditions: 1000 nM, percent control relative to vehicle
# T2 construct: purchased DiscoveRx KINOMEscan
# From the text: as §1
# AURKB = molecular target: T3, AURKB (Homo sapiens, UniProt Q96GD4); conditions: 1000 nM, percent control relative to vehicle
# T3 construct: purchased DiscoveRx KINOMEscan
# From the text: as §1
# BMPR2 = molecular target: T4, BMPR2 (Homo sapiens, UniProt Q13873); conditions: 1000 nM, percent control relative to vehicle
# T4 construct: purchased DiscoveRx KINOMEscan
# From the text: as §1
# BRAF (V600E) = molecular target: T5, BRAF (V600E) (Homo sapiens, UniProt P15056, V600E); conditions: 1000 nM, percent control relative to vehicle
# T5 construct: purchased DiscoveRx KINOMEscan
# T5 sequence (P15056 whole entry V600E): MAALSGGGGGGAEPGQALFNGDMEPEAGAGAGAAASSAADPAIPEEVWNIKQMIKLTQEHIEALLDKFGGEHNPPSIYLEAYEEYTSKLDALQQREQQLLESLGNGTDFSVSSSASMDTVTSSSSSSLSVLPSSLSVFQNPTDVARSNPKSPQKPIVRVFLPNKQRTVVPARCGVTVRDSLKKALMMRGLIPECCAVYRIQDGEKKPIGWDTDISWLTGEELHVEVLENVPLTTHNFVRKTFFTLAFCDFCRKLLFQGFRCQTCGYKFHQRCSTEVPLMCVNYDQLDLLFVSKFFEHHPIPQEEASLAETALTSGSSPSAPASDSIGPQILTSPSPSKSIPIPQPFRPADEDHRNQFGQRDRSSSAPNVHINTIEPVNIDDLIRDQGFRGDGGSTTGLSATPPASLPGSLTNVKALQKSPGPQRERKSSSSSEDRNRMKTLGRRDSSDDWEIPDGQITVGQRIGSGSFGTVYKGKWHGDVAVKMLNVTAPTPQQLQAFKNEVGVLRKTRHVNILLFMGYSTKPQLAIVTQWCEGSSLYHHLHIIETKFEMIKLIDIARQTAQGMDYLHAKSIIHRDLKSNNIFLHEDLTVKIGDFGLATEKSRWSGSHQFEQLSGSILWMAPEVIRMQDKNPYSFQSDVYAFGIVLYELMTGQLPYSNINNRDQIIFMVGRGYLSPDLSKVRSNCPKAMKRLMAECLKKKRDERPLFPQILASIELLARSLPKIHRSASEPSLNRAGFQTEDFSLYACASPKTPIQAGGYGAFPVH
# From the text: as §1
# BTK = molecular target: T6, BTK (Homo sapiens, UniProt Q06187); conditions: 1000 nM, percent control relative to vehicle
# T6 construct: purchased DiscoveRx KINOMEscan
# T6 sequence (Q06187 whole entry): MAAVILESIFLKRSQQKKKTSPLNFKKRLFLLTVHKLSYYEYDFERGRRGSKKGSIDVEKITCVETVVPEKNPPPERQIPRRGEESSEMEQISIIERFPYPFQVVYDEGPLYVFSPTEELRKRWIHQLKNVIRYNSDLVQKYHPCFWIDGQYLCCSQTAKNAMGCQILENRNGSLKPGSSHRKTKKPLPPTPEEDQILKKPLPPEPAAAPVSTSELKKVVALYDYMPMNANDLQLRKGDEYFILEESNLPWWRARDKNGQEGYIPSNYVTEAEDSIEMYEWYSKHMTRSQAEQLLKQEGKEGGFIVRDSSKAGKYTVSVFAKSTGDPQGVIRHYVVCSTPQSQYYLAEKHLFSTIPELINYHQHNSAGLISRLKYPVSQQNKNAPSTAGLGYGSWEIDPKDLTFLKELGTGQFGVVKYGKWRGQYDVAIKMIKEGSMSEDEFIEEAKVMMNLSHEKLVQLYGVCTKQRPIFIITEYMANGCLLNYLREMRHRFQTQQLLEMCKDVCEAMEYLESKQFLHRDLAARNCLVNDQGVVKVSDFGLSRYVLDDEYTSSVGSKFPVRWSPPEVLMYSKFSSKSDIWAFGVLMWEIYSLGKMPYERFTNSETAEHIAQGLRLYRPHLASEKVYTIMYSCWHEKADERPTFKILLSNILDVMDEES
# From the text: as §1
# CDK2 = molecular target: T7, CDK2 (Homo sapiens, UniProt P24941); conditions: 1000 nM, percent control relative to vehicle
# T7 construct: purchased DiscoveRx KINOMEscan
# From the text: as §1
# CDK7 = molecular target: T8, CDK7 (Homo sapiens, UniProt P50613); conditions: 1000 nM, percent control relative to vehicle
# T8 construct: purchased DiscoveRx KINOMEscan
# From the text: as §1
# CSF1R = molecular target: T9, CSF1R (Homo sapiens, UniProt P07333); conditions: 1000 nM, percent control relative to vehicle
# T9 construct: purchased DiscoveRx KINOMEscan
# From the text: as §1
# CSNK1D = molecular target: T10, CSNK1D (Homo sapiens, UniProt P48730); conditions: 1000 nM, percent control relative to vehicle
# T10 construct: purchased DiscoveRx KINOMEscan
# T10 sequence (P48730 whole entry): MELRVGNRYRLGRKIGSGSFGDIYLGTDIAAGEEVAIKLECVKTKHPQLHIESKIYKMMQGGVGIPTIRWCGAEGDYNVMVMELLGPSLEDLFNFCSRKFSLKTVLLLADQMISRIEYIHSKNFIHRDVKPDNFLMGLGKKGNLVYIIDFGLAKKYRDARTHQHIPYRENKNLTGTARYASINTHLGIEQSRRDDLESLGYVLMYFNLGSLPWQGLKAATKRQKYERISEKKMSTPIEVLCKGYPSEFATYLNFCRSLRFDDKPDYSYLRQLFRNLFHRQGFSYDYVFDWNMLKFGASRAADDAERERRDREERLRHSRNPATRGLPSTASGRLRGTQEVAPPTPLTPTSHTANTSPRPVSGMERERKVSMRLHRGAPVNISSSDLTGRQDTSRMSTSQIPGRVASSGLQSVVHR
# From the text: as §1
# CSNK1G2 = molecular target: T11, CSNK1G2 (Homo sapiens, UniProt P78368); conditions: 1000 nM, percent control relative to vehicle
# T11 construct: purchased DiscoveRx KINOMEscan
# From the text: as §1
# DCAMKL1 = molecular target: T12, DCAMKL1 (Homo sapiens, UniProt O15075); conditions: 1000 nM, percent control relative to vehicle
# T12 construct: purchased DiscoveRx KINOMEscan
# From the text: as §1
# DYRK1B = molecular target: T13, DYRK1B (Homo sapiens, UniProt Q9Y463); conditions: 1000 nM, percent control relative to vehicle
# T13 construct: purchased DiscoveRx KINOMEscan
# T13 sequence (Q9Y463 whole entry): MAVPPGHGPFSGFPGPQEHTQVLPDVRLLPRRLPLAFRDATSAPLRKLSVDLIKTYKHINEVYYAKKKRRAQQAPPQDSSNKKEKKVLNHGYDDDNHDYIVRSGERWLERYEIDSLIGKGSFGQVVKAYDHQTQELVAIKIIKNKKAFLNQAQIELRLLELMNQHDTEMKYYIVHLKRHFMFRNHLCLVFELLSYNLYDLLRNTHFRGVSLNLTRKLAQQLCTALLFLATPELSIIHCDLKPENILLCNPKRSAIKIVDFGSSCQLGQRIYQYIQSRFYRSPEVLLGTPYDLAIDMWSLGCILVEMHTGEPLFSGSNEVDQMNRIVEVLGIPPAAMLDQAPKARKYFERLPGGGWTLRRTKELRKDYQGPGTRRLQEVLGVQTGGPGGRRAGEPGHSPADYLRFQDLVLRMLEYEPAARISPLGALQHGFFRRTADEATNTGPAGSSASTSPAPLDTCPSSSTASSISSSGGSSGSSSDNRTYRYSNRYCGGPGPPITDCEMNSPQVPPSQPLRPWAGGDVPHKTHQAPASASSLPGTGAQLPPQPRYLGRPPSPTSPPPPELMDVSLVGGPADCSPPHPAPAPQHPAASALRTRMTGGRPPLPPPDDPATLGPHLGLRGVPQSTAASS
# From the text: as §1
# EGFR (L858R) = molecular target: T14, EGFR (L858R) (Homo sapiens, UniProt P00533, L858R); conditions: 1000 nM, percent control relative to vehicle
# T14 construct: purchased DiscoveRx KINOMEscan
# From the text: as §1
# ERBB4 = molecular target: T15, ERBB4 (Homo sapiens, UniProt Q15303); conditions: 1000 nM, percent control relative to vehicle
# T15 construct: purchased DiscoveRx KINOMEscan
# From the text: as §1
# FGFR3 = molecular target: T16, FGFR3 (Homo sapiens, UniProt P22607); conditions: 1000 nM, percent control relative to vehicle
# T16 construct: purchased DiscoveRx KINOMEscan
# From the text: as §1
# FLT3 = molecular target: T17, FLT3 (Homo sapiens, UniProt P36888); conditions: 1000 nM, percent control relative to vehicle
# T17 construct: purchased DiscoveRx KINOMEscan
# From the text: as §1
# GSK3B = molecular target: T18, GSK3B (Homo sapiens, UniProt P49841); conditions: 1000 nM, percent control relative to vehicle
# T18 construct: purchased DiscoveRx KINOMEscan
# T18 sequence (P49841 whole entry): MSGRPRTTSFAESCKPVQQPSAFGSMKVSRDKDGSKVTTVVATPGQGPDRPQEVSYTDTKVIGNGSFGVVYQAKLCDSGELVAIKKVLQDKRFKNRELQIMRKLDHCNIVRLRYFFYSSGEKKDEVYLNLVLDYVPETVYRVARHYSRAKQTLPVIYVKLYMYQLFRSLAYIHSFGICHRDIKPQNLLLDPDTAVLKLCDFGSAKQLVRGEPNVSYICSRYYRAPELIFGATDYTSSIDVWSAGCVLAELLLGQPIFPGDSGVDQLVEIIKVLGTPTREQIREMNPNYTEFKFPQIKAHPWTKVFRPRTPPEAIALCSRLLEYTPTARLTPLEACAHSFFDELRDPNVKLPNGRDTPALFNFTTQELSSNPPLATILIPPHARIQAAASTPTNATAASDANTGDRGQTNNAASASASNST
# From the text: as §1
# IKK-alpha = molecular target: T19, IKK-alpha (Homo sapiens, UniProt O15111); conditions: 1000 nM, percent control relative to vehicle
# T19 construct: purchased DiscoveRx KINOMEscan
# From the text: as §1
# JNK1 = molecular target: T20, JNK1 (Homo sapiens, UniProt P45983); conditions: 1000 nM, percent control relative to vehicle
# T20 construct: purchased DiscoveRx KINOMEscan
# From the text: as §1
# KIT = molecular target: T21, KIT (Homo sapiens, UniProt P10721); conditions: 1000 nM, percent control relative to vehicle
# T21 construct: purchased DiscoveRx KINOMEscan
# From the text: as §1
# KIT(D816V) = molecular target: T22, KIT(D816V) (Homo sapiens, UniProt P10721, D816V); conditions: 1000 nM, percent control relative to vehicle
# T22 construct: purchased DiscoveRx KINOMEscan
# From the text: as §1
# LKB1 = molecular target: T23, LKB1 (Homo sapiens, UniProt Q15831); conditions: 1000 nM, percent control relative to vehicle
# T23 construct: purchased DiscoveRx KINOMEscan
# From the text: as §1
# MEK1 = molecular target: T24, MEK1 (Homo sapiens, UniProt Q02750); conditions: 1000 nM, percent control relative to vehicle
# T24 construct: purchased DiscoveRx KINOMEscan
# From the text: as §1
# MET = molecular target: T25, MET (Homo sapiens, UniProt P08581); conditions: 1000 nM, percent control relative to vehicle
# T25 construct: purchased DiscoveRx KINOMEscan
# From the text: as §1
# PDGFRB = molecular target: T26, PDGFRB (Homo sapiens, UniProt P09619); conditions: 1000 nM, percent control relative to vehicle
# T26 construct: purchased DiscoveRx KINOMEscan
# From the text: as §1
# PIK3C2B = molecular target: T27, PIK3C2B (Homo sapiens, UniProt O00750); conditions: 1000 nM, percent control relative to vehicle
# T27 construct: purchased DiscoveRx KINOMEscan
# From the text: as §1
# PIK3CA = PIK3CA (Homo sapiens, UniProt P42336)
# Sequence of PIK3CA (P42336 whole entry): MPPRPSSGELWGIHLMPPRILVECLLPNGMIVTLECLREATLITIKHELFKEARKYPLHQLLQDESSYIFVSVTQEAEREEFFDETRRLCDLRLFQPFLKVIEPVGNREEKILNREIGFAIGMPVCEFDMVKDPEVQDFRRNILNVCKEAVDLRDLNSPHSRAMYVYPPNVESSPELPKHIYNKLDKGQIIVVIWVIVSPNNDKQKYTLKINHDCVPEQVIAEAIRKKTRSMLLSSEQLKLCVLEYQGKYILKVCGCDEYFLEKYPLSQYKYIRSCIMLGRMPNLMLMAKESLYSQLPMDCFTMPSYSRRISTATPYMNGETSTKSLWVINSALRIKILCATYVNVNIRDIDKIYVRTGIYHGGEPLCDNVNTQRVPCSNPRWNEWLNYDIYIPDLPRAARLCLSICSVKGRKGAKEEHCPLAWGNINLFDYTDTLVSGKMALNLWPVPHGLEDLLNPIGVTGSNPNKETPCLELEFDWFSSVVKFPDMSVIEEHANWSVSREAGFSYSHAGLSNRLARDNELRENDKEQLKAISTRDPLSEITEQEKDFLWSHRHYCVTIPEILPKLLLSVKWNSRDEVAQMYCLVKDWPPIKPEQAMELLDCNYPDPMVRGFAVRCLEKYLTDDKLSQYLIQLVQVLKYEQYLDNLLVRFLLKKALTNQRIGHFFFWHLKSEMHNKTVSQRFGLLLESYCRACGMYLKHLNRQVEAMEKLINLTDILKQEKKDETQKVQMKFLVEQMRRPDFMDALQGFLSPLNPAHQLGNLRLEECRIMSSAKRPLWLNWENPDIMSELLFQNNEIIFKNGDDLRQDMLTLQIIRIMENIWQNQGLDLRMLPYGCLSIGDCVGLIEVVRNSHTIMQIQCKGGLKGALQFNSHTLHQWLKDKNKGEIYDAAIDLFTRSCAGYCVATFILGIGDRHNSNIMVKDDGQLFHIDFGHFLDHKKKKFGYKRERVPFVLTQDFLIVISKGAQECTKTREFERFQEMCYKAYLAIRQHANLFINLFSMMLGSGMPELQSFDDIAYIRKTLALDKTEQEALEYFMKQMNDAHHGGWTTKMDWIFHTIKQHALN
# From the text: as §1
# PIM1 = molecular target: T28, PIM1 (Homo sapiens, UniProt P11309); conditions: 1000 nM, percent control relative to vehicle
# T28 construct: purchased DiscoveRx KINOMEscan
# From the text: as §1
# PIM2 = molecular target: T29, PIM2 (Homo sapiens, UniProt Q9P1W9); conditions: 1000 nM, percent control relative to vehicle
# T29 construct: purchased DiscoveRx KINOMEscan
# T29 sequence (Q9P1W9 whole entry): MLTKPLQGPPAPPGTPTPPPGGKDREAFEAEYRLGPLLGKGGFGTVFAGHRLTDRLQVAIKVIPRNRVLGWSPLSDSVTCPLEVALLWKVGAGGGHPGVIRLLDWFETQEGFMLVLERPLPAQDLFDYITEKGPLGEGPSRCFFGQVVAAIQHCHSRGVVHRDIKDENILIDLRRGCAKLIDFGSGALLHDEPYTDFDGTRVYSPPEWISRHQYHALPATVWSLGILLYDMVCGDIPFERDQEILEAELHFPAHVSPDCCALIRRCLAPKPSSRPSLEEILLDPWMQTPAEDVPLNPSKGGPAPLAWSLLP
# From the text: as §1
# PKAC-alpha = molecular target: T30, PKAC-alpha (Homo sapiens, UniProt P17612); conditions: 1000 nM, percent control relative to vehicle
# T30 construct: purchased DiscoveRx KINOMEscan
# From the text: as §1
# PLK1 = molecular target: T31, PLK1 (Homo sapiens, UniProt P53350); conditions: 1000 nM, percent control relative to vehicle
# T31 construct: purchased DiscoveRx KINOMEscan
# From the text: as §1
# PLK4 = molecular target: T32, PLK4 (Homo sapiens, UniProt O00444); conditions: 1000 nM, percent control relative to vehicle
# T32 construct: purchased DiscoveRx KINOMEscan
# From the text: as §1
# RET = molecular target: T33, RET (Homo sapiens, UniProt P07949); conditions: 1000 nM, percent control relative to vehicle
# T33 construct: purchased DiscoveRx KINOMEscan
# From the text: as §1
# RIOK2 = molecular target: T34, RIOK2 (Homo sapiens, UniProt Q9BVS4); conditions: 1000 nM, percent control relative to vehicle
# T34 construct: purchased DiscoveRx KINOMEscan
# From the text: as §1
# ROCK2 = molecular target: T35, ROCK2 (Homo sapiens, UniProt O75116); conditions: 1000 nM, percent control relative to vehicle
# T35 construct: purchased DiscoveRx KINOMEscan
# From the text: as §1
# [2] = molecular target: T36, RSK2 (Kin.Dom.1-N- terminal) (Homo sapiens, UniProt P51812); conditions: 1000 nM, percent control relative to vehicle
# T36 construct: RSK2 (Kin.Dom.1-N- terminal); purchased DiscoveRx KINOMEscan
# From the text: as §1
# SNARK = molecular target: T37, SNARK (Homo sapiens, UniProt Q9H093); conditions: 1000 nM, percent control relative to vehicle
# T37 construct: purchased DiscoveRx KINOMEscan
# T37 sequence (Q9H093 whole entry): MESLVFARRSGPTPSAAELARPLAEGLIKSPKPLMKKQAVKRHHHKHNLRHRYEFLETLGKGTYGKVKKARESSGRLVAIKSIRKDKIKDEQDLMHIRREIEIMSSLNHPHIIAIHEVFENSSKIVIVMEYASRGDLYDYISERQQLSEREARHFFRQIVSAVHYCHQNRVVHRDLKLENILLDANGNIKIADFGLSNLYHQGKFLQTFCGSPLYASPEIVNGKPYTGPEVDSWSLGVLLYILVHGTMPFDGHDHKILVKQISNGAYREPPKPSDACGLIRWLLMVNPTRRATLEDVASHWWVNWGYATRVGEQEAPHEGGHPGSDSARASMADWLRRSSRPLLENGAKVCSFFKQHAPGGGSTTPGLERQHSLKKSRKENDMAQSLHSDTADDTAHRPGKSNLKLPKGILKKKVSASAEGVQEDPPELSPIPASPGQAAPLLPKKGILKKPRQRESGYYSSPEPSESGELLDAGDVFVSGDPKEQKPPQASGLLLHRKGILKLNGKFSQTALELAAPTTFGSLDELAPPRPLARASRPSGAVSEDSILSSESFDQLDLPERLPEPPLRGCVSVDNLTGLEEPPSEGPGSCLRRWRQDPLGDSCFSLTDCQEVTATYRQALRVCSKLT
# From the text: as §1
# SRC = molecular target: T38, SRC (Homo sapiens, UniProt P12931); conditions: 1000 nM, percent control relative to vehicle
# T38 construct: purchased DiscoveRx KINOMEscan
# From the text: as §1
# SRPK3 = molecular target: T39, SRPK3 (Homo sapiens, UniProt Q9UPE1); conditions: 1000 nM, percent control relative to vehicle
# T39 construct: purchased DiscoveRx KINOMEscan
# From the text: as §1
# TSSK1B = molecular target: T40, TSSK1B (Homo sapiens, UniProt Q9BXA7); conditions: 1000 nM, percent control relative to vehicle
# T40 construct: purchased DiscoveRx KINOMEscan
# From the text: as §1
# [3] = molecular target: T41, TYK2 (JH1domain-catalytic) (Homo sapiens, UniProt P29597); conditions: 1000 nM, percent control relative to vehicle
# T41 construct: TYK2 (JH1domain-catalytic); purchased DiscoveRx KINOMEscan
# From the text: as §1
# VEGFR2 = molecular target: T42, VEGFR2 (Homo sapiens, UniProt P35968); conditions: 1000 nM, percent control relative to vehicle
# T42 construct: purchased DiscoveRx KINOMEscan
# From the text: as §1
# YANK3 = molecular target: T43, YANK3 (Homo sapiens, UniProt Q86UX6); conditions: 1000 nM, percent control relative to vehicle
# T43 construct: purchased DiscoveRx KINOMEscan
# From the text: as §1
smiles,measurement,setting,value
CNC(=O)c1cccc(-c2ccc3c(N4C5CCC4COC5)nc(N4CCOC[C@@H]4C)nc3n2)c1 [MTI-31],% Control,[1],78%
same,% Control,ACVR1B,86%
same,% Control,AURKB,80%
same,% Control,BMPR2,88%
same,% Control,BRAF (V600E),93%
same,% Control,BTK,68%
same,% Control,CDK2,84%
same,% Control,CDK7,99%
same,% Control,CSF1R,99%
same,% Control,CSNK1D,80%
same,% Control,CSNK1G2,100%
same,% Control,DCAMKL1,76%
same,% Control,DYRK1B,100%
same,% Control,EGFR (L858R),100%
same,% Control,ERBB4,100%
same,% Control,FGFR3,92%
same,% Control,FLT3,100%
same,% Control,GSK3B,56%
same,% Control,IKK-alpha,82%
same,% Control,JNK1,81%
same,% Control,KIT,100%
same,% Control,KIT(D816V),97%
same,% Control,LKB1,100%
same,% Control,MEK1,73%
same,% Control,MET,100%
same,% Control,PDGFRB,100%
same,% Control,PIK3C2B,100%
same,Kd,PIK3CA,> 1000 nM
same,% Control,"PIK3CA; 1000 nM, percent control relative to vehicle",100%
same,% Control,PIM1,100%
same,% Control,PIM2,92%
same,% Control,PKAC-alpha,98%
same,% Control,PLK1,78%
same,% Control,PLK4,87%
same,% Control,RET,100%
same,% Control,RIOK2,80%
same,% Control,ROCK2,73%
same,% Control,[2],78%
same,% Control,SNARK,89%
same,% Control,SRC,100%
same,% Control,SRPK3,90%
same,% Control,TSSK1B,100%
same,% Control,[3],63%
same,% Control,VEGFR2,98%
same,% Control,YANK3,85%
